# Assay results: the supplement of paper PMC10307832
# Experiments:
# Test in all cases: relative viability (nuclei count vs DMSO), 5 days (fraction); higher = more cells survive
# NCI-H2347 = system: NCI-H2347
# Summary of the method: (§1)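 Lung cancer cell lines, seeded in 1536-well plates, were treated the following day by pin tool with a single drug or with five library-drug doses (not always all listed) in √10 steps on top of a fixed anchor-drug dose. Cells were fixed and nuclei stained in one step after 5 days, and nuclei were counted. Relative viability is the nuclei count for treated wells divided by that for vehicle wells, reported as medians of duplicate plates.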
# COR-L23 = system: COR-L23
# Summary of the method: as §1
# HOP-62 = system: HOP-62
# Summary of the method: as §1
# NCI-H1993 = system: NCI-H1993
# Summary of the method: as §1
# NCI-H647 = system: NCI-H647
# Summary of the method: as §1
# SK-MES-1 = system: SK-MES-1
# Summary of the method: as §1
# NCI-H1792 = system: NCI-H1792
# Summary of the method: as §1
# NCI-H522 = system: NCI-H522
# Summary of the method: as §1
# NCI-H1734 = system: NCI-H1734
# Summary of the method: as §1
# COR-L 105 = system: COR-L 105
# Summary of the method: as §1
# NCI-H2228 = system: NCI-H2228
# Summary of the method: as §1
# UMC-11 = system: UMC-11
# Summary of the method: as §1
# NCI-H1395 = system: NCI-H1395
# Summary of the method: as §1
# HARA = system: HARA
# Summary of the method: as §1
# NCI-H1755 = system: NCI-H1755
# Summary of the method: as §1
# NCI-H838 = system: NCI-H838
# Summary of the method: as §1
# NCI-H1793 = system: NCI-H1793
# Summary of the method: as §1
# NCI-H2170 = system: NCI-H2170
# Summary of the method: as §1
# NCI-H358 = system: NCI-H358
# Summary of the method: as §1
# HCC-15 = system: HCC-15
# Summary of the method: as §1
# NCI-H2009 = system: NCI-H2009
# Summary of the method: as §1
# NCI-H1355 = system: NCI-H1355
# Summary of the method: as §1
smiles,measurement,setting,value
Cc1sc2c(c1C)C(c1ccc(Cl)cc1)=N[C@@H](CC(=O)OC(C)(C)C)c1nnc(C)n1-2 [JQ1] + O=C(c1cc(Cc2n[nH]c(=O)c3ccccc23)ccc1F)N1CCN(C(=O)C2CC2)CC1 [Olaparib] (partner 8 µM),relative viability,NCI-H2347; first compound 0.04 µM,0.544
same,relative viability,NCI-H2347; first compound 0.1265 µM,0.557
same,relative viability,NCI-H2347; first compound 0.4 µM,0.477
same,relative viability,NCI-H2347; first compound 1.265 µM,0.435
same,relative viability,NCI-H2347; first compound 4 µM,0.409
same,relative viability,COR-L23; first compound 0.04 µM,0.357
same,relative viability,COR-L23; first compound 0.1265 µM,0.229
same,relative viability,COR-L23; first compound 0.4 µM,0.295
same,relative viability,COR-L23; first compound 1.265 µM,0.11
same,relative viability,COR-L23; first compound 4 µM,0.136
same,relative viability,HOP-62; first compound 0.04 µM,0.306
same,relative viability,HOP-62; first compound 0.1265 µM,0.285
same,relative viability,HOP-62; first compound 0.4 µM,0.18
same,relative viability,HOP-62; first compound 1.265 µM,0.114
same,relative viability,HOP-62; first compound 4 µM,0.115
same,relative viability,NCI-H1993; first compound 0.04 µM,0.922
same,relative viability,NCI-H1993; first compound 0.1265 µM,0.994
same,relative viability,NCI-H1993; first compound 0.4 µM,1.1
same,relative viability,NCI-H1993; first compound 1.265 µM,0.807
same,relative viability,NCI-H1993; first compound 4 µM,0.584
same,relative viability,NCI-H647; first compound 0.04 µM,0.384
same,relative viability,NCI-H647; first compound 0.1265 µM,0.185
same,relative viability,NCI-H647; first compound 0.4 µM,0.128
same,relative viability,NCI-H647; first compound 1.265 µM,0.0378
same,relative viability,NCI-H647; first compound 4 µM,0.036
same,relative viability,SK-MES-1; first compound 0.04 µM,0.671
same,relative viability,SK-MES-1; first compound 0.1265 µM,0.606
same,relative viability,SK-MES-1; first compound 0.4 µM,0.385
same,relative viability,SK-MES-1; first compound 1.265 µM,0.208
same,relative viability,SK-MES-1; first compound 4 µM,0.209
same,relative viability,NCI-H1792; first compound 0.04 µM,0.378
same,relative viability,NCI-H1792; first compound 0.1265 µM,0.266
same,relative viability,NCI-H1792; first compound 0.4 µM,0.392
same,relative viability,NCI-H1792; first compound 1.265 µM,0.139
same,relative viability,NCI-H1792; first compound 4 µM,0.0406
same,relative viability,NCI-H522; first compound 0.04 µM,0.577
same,relative viability,NCI-H522; first compound 0.1265 µM,0.674
same,relative viability,NCI-H522; first compound 0.4 µM,0.453
same,relative viability,NCI-H522; first compound 1.265 µM,0.388
same,relative viability,NCI-H522; first compound 4 µM,0.344
same,relative viability,NCI-H1734; first compound 0.04 µM,0.606
same,relative viability,NCI-H1734; first compound 0.1265 µM,0.556
same,relative viability,NCI-H1734; first compound 0.4 µM,0.563
same,relative viability,NCI-H1734; first compound 1.265 µM,0.47
same,relative viability,NCI-H1734; first compound 4 µM,0.349
same,relative viability,COR-L 105; first compound 0.04 µM,0.624
same,relative viability,COR-L 105; first compound 0.1265 µM,0.497
same,relative viability,COR-L 105; first compound 0.4 µM,0.385
same,relative viability,COR-L 105; first compound 1.265 µM,0.329
same,relative viability,COR-L 105; first compound 4 µM,0.351
same,relative viability,NCI-H2228; first compound 0.04 µM,0.628
same,relative viability,NCI-H2228; first compound 0.1265 µM,0.434
same,relative viability,NCI-H2228; first compound 0.4 µM,0.356
same,relative viability,NCI-H2228; first compound 1.265 µM,0.123
same,relative viability,NCI-H2228; first compound 4 µM,0.181
same,relative viability,UMC-11; first compound 0.04 µM,0.359
same,relative viability,UMC-11; first compound 0.1265 µM,0.282
same,relative viability,UMC-11; first compound 0.4 µM,0.268
same,relative viability,UMC-11; first compound 1.265 µM,0.142
same,relative viability,UMC-11; first compound 4 µM,0.0941
same,relative viability,NCI-H1395; first compound 0.04 µM,0.489
same,relative viability,NCI-H1395; first compound 0.1265 µM,0.452
same,relative viability,NCI-H1395; first compound 0.4 µM,0.449
same,relative viability,NCI-H1395; first compound 1.265 µM,0.378
same,relative viability,NCI-H1395; first compound 4 µM,0.356
same,relative viability,HARA; first compound 0.04 µM,0.739
same,relative viability,HARA; first compound 0.1265 µM,0.484
same,relative viability,HARA; first compound 0.4 µM,0.321
same,relative viability,HARA; first compound 1.265 µM,0.308
same,relative viability,HARA; first compound 4 µM,0.18
same,relative viability,NCI-H1755; first compound 0.04 µM,0.887
same,relative viability,NCI-H1755; first compound 0.1265 µM,0.824
same,relative viability,NCI-H1755; first compound 0.4 µM,0.806
same,relative viability,NCI-H1755; first compound 1.265 µM,0.644
same,relative viability,NCI-H1755; first compound 4 µM,0.611
same,relative viability,NCI-H838; first compound 0.04 µM,0.749
same,relative viability,NCI-H838; first compound 0.1265 µM,0.327
same,relative viability,NCI-H838; first compound 0.4 µM,0.395
same,relative viability,NCI-H838; first compound 1.265 µM,0.237
same,relative viability,NCI-H838; first compound 4 µM,0.174
same,relative viability,NCI-H1793; first compound 0.04 µM,0.882
same,relative viability,NCI-H1793; first compound 0.1265 µM,0.735
same,relative viability,NCI-H1793; first compound 0.4 µM,0.666
same,relative viability,NCI-H1793; first compound 1.265 µM,0.526
same,relative viability,NCI-H1793; first compound 4 µM,0.52
same,relative viability,NCI-H2170; first compound 0.04 µM,0.614
same,relative viability,NCI-H2170; first compound 0.1265 µM,0.532
same,relative viability,NCI-H2170; first compound 0.4 µM,0.361
same,relative viability,NCI-H2170; first compound 1.265 µM,0.226
same,relative viability,NCI-H2170; first compound 4 µM,0.213
same,relative viability,NCI-H358; first compound 0.04 µM,0.509
same,relative viability,NCI-H358; first compound 0.1265 µM,0.58
same,relative viability,NCI-H358; first compound 0.4 µM,0.604
same,relative viability,NCI-H358; first compound 1.265 µM,0.406
same,relative viability,NCI-H358; first compound 4 µM,0.37
same,relative viability,HCC-15; first compound 0.04 µM,0.528
same,relative viability,HCC-15; first compound 0.1265 µM,0.641
same,relative viability,HCC-15; first compound 0.4 µM,0.693
same,relative viability,HCC-15; first compound 1.265 µM,0.58
same,relative viability,HCC-15; first compound 4 µM,0.392
same,relative viability,NCI-H2009; first compound 0.04 µM,0.689
same,relative viability,NCI-H2009; first compound 0.1265 µM,0.548
same,relative viability,NCI-H2009; first compound 0.4 µM,0.545
same,relative viability,NCI-H2009; first compound 1.265 µM,0.198
same,relative viability,NCI-H2009; first compound 4 µM,0.152
same,relative viability,NCI-H1355; first compound 0.04 µM,0.626
same,relative viability,NCI-H1355; first compound 0.1265 µM,0.697
same,relative viability,NCI-H1355; first compound 0.4 µM,0.643
same,relative viability,NCI-H1355; first compound 1.265 µM,0.403
same,relative viability,NCI-H1355; first compound 4 µM,0.344
